Assay results reported in US8624053B2, “Method to produce a stable dry ionic-bonded creatine α ketoglutarate of high oral absorbability” (priority 2012, dated 2014).

Tested on: athletes
Conditions: about half the dose provided from other preparations
Excerpt: (The actual dose depended on the athlete.)
The performance evaluations were made by experienced coaches, overlooking standard athletic tasks.

## creatine α-ketoglutarate [product of the invention]
  time after delivery to peak performance: ten
